Experimental data from PubChem BioAssay (NCI).
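Five compound concentrations were applied to cells in 96-well plates for 48 hours; endpoints were derived by simple linear interpolation of the resulting dose-response curve. The concentration for full growth arrest is given as TGI.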

Tests used:
Test in all cases: growth of human tumour cells (NCI), 48 h
HCT-15 colon = test system: HCT-15 colon
CCRF-CEM leukemia = test system: CCRF-CEM leukemia
OVCAR-3 ovarian = test system: OVCAR-3 ovarian
IGROV1 ovarian = test system: IGROV1 ovarian
M14 melanoma = test system: M14 melanoma
MDA-MB-231 breast = test system: MDA-MB-231 breast
A549 NSCLC = test system: A549 NSCLC
COLO 205 colon = test system: COLO 205 colon
SK-OV-3 ovarian = test system: SK-OV-3 ovarian
OVCAR-4 ovarian = test system: OVCAR-4 ovarian
A498 renal = test system: A498 renal
EKVX NSCLC = test system: EKVX NSCLC
MDA-N = test system: MDA-N
MDA-MB-435 = test system: MDA-MB-435
DU-145 prostate = test system: DU-145 prostate
SK-MEL-5 melanoma = test system: SK-MEL-5 melanoma
MOLT-4 leukemia = test system: MOLT-4 leukemia
SF-268 CNS = test system: SF-268 CNS
NCI-H23 lung = test system: NCI-H23 lung
PC-3 prostate = test system: PC-3 prostate
SW-620 colon = test system: SW-620 colon
SK-MEL-2 melanoma = test system: SK-MEL-2 melanoma
UACC-257 melanoma = test system: UACC-257 melanoma
BT-549 breast = test system: BT-549 breast
UACC-62 melanoma = test system: UACC-62 melanoma
MALME-3M melanoma = test system: MALME-3M melanoma
SN12C renal = test system: SN12C renal
SF-295 CNS = test system: SF-295 CNS
SR leukemia = test system: SR leukemia
TK-10 renal = test system: TK-10 renal
HOP-62 NSCLC = test system: HOP-62 NSCLC
SK-MEL-28 melanoma = test system: SK-MEL-28 melanoma
RPMI-8226 leukemia = test system: RPMI-8226 leukemia
OVCAR-5 ovarian = test system: OVCAR-5 ovarian
HT29 colon = test system: HT29 colon
CAKI-1 renal = test system: CAKI-1 renal
NCI-H522 lung = test system: NCI-H522 lung
SNB-19 CNS = test system: SNB-19 CNS
NCI-H460 lung = test system: NCI-H460 lung
HOP-92 NSCLC = test system: HOP-92 NSCLC
UO-31 renal = test system: UO-31 renal
HCC-2998 colon = test system: HCC-2998 colon
U251 CNS = test system: U251 CNS
KM12 colon = test system: KM12 colon
HCT-116 colon = test system: HCT-116 colon

Measured: TGI

COC(=O)Cc1c(-c2c(CC(=O)OC)c3ccccc3n2C2OC(COC(C)=O)C(OC(C)=O)C(OC(C)=O)C2OC(C)=O)[nH]c2ccccc12 (stereo not given)
> 100 µM: all assays above
